Results as given in patent US7429660B2, “ATM inhibitors” (Kudos Pharmaceuticals Limited, priority 2003, dated 2008).
pIC50: −log10 of the molar value.

target: T1, ATM protein immunoprecipitated from HeLa cell nuclear extract (Homo sapiens, UniProt Q13315); assay: In vitro ATM inhibition assay (phosphorylation of GSTp53N66 on serine 15, chemiluminescent detection); format: biochemical; conditions: read-out: IC50 values (the concentration at which 50% of the enzyme activity is inhibited), ATM inhibition; note: tested normally from 100 µM down to 0.1 nM
T1 construct: ATM protein was immunoprecipitated from HeLa cell nuclear extract; endogenous in cells; host or cells: HeLa cell nuclear extract (immunoprecipitated with rabbit polyclonal anti-ATM antiserum)
T1 sequence (Q13315 whole entry): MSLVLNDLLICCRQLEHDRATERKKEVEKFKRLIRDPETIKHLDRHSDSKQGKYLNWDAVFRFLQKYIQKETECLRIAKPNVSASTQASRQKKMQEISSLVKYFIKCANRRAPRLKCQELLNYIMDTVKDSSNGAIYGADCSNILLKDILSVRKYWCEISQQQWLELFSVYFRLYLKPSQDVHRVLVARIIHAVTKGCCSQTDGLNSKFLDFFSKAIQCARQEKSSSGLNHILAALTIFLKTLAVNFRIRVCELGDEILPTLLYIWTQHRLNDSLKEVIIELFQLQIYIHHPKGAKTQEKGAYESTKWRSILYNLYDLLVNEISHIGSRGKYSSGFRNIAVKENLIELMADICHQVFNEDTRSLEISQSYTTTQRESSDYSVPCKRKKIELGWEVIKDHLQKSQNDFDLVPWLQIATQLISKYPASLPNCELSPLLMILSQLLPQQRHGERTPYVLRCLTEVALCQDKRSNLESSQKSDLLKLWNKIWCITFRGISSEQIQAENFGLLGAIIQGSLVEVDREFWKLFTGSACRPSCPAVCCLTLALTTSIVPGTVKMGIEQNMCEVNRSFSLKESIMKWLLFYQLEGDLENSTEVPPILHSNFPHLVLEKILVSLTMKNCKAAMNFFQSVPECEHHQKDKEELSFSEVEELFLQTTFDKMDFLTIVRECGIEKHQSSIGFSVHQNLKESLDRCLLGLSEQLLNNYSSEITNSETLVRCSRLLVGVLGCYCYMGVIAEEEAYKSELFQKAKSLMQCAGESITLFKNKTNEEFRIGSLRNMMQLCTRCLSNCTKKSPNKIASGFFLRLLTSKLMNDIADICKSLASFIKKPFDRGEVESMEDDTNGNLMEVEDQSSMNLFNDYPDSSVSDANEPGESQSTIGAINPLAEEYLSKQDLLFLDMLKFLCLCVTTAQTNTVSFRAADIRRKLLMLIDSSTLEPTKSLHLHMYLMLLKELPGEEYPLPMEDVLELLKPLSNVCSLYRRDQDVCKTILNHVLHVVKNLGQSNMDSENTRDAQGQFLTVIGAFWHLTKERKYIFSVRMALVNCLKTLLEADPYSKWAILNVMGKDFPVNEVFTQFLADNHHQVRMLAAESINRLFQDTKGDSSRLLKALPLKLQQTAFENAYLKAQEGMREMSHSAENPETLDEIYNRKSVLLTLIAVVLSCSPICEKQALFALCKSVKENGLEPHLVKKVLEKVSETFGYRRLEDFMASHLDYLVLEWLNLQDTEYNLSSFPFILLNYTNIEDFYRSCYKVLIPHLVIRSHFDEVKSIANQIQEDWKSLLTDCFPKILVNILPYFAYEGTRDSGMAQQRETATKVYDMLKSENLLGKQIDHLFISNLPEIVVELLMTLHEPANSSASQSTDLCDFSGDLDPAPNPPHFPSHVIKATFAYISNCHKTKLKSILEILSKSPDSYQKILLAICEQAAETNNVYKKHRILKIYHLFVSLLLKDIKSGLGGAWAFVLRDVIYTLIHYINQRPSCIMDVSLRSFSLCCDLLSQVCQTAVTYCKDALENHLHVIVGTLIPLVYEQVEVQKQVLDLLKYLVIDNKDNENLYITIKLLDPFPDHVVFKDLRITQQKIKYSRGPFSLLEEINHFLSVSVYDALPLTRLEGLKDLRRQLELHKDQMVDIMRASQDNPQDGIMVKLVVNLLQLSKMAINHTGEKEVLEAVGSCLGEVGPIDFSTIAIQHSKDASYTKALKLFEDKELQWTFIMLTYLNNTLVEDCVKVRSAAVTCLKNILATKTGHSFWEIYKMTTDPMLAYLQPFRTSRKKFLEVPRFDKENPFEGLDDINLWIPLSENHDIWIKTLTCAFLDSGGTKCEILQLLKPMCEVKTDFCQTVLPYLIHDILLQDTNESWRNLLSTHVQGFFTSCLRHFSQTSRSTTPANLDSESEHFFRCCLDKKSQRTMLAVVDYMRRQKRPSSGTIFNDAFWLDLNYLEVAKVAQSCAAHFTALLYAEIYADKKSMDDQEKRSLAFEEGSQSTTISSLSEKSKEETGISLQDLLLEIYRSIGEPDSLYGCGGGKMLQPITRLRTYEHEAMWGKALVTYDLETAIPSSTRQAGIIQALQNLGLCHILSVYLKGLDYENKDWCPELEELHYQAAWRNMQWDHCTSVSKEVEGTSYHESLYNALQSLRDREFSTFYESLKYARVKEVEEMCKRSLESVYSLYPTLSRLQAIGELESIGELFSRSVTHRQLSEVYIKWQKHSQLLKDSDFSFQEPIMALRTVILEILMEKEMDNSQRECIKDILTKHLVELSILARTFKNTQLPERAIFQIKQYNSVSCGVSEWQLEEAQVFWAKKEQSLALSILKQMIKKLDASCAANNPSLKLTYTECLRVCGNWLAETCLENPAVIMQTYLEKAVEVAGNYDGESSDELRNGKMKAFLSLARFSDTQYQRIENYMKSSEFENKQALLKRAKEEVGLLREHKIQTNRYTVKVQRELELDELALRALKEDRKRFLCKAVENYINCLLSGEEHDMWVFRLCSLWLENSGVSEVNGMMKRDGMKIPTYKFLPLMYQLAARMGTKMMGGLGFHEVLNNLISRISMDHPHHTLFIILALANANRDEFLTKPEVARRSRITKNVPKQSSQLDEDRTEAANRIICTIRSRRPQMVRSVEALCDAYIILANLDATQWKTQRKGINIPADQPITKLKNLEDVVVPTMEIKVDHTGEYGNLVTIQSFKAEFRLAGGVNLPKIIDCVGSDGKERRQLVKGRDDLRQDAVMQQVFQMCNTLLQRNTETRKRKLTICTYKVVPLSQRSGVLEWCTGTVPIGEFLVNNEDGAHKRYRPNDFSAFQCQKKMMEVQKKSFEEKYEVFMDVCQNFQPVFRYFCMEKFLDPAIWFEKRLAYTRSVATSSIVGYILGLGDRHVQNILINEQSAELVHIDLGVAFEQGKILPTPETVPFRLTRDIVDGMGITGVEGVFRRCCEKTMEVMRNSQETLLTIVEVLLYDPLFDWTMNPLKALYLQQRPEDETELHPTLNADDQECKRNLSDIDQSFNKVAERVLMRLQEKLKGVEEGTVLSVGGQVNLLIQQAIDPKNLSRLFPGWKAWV
Procedure, shortened: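 Immunoprecipitated HeLa nuclear ATM (C-terminal anti-sera) with GSTp53N66 substrate in Hepes pH 7.4 buffer with MgCl2/MnCl2; inhibitor preincubated 10 min at 37 °C, then Na-ATP added, 1 h at 37 °C.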

pIC50, > 6.70:
CC(=O)N1CCN(CCOc2ccc3c(c2)Sc2cccc(-c4cc(=O)cc(N5CCOCC5)o4)c2S3)CC1 [Compound 378]
O=c1cc(-c2cccc3c2Sc2ccccc2N3CCCN2CCN(c3ccccc3F)CC2)oc(N2CCOCC2)c1 [Compound 297]
CN(C)CCN1CCN(CCC(=O)Nc2ccc3c(c2)Cc2cccc(-c4cc(=O)cc(N5CCOCC5)o4)c2S3)CC1 [Compound 356]
CCN1CCN(CC(=O)Nc2ccc3c(c2)Sc2cccc(-c4cc(=O)cc(N5CCOCC5)o4)c2S3)CC1 [Compound 81]
CC(=O)N1CCN(C(=O)c2ccc3c(c2)Sc2cccc(-c4cc(=O)cc(N5CCOCC5)o4)c2S3)CC1 [Compound 11]
O=C(CCNCCN1CCCCC1)Nc1ccc2c(c1)Sc1cccc(-c3cc(=O)cc(N4CCOCC4)o3)c1S2 [Compound 127]
O=c1cc(-c2cccc3c2Sc2ccccc2N3CCCNCc2ccccn2)oc(N2CCOCC2)c1 [Compound 266]
C[C@@H]1CN(C(=O)COc2ccc3c(c2)Sc2cccc(-c4cc(=O)cc(N5CCOCC5)o4)c2S3)C[C@H](C)O1 [Compound 433]
CN(C)CCCNCCCN1c2ccccc2Sc2c(-c3cc(=O)cc(N4CCOCC4)o3)cccc21 [Compound 284]
O=c1cc(-c2cccc3c2Sc2ccc(S(=O)(=O)Nc4cccnc4)cc2C3)oc(N2CCOCC2)c1 [Compound 472]
NCCNCCC(=O)Nc1ccc2c(c1)Sc1cccc(-c3cc(=O)cc(N4CCOCC4)o3)c1S2 [Compound 97]
COC(=O)CCCC(=O)Nc1ccc2c(c1)Sc1cccc(-c3cc(=O)cc(N4CCOCC4)o3)c1S2 [Compound 26]
CN1CCN(C(=O)c2ccc3c(c2)Sc2cccc(-c4cc(=O)cc(N5CCOCC5)o4)c2S3)CC1 [Compound 6]
CN(C)CCN1CCN(CC(=O)Nc2ccc3c(c2)Sc2cccc(-c4cc(=O)cc(N5CCOCC5)o4)c2S3)CC1 [Compound 86]
O=C(COc1ccc2c(c1)Cc1cccc(-c3cc(=O)cc(N4CCOCC4)o3)c1S2)NC(CO)(CO)CO [Compound 505]
O=c1cc(-c2cccc3c2Sc2ccc(S(=O)(=O)N4CCCC4)cc2C3)oc(N2CCOCC2)c1 [Compound 468]
CN1CCCN(CCCN2c3ccccc3Sc3c(-c4cc(=O)cc(N5CCOCC5)o4)cccc32)CC1 [Compound 331]
O=C(Nc1ccc2c(c1)Sc1cccc(-c3cc(=O)cc(N4CCOCC4)o3)c1S2)C1CCC1 [Compound 34]
O=C(CCNCCO)Nc1ccc2c(c1)Sc1cccc(-c3cc(=O)cc(N4CCOCC4)o3)c1S2 [Compound 96]
O=C(Nc1ccc2c(c1)Sc1cccc(-c3cc(=O)cc(N4CCOCC4)o3)c1S2)c1cccnc1 [Compound 28]
O=C(c1ccc2c(c1)Sc1cccc(-c3cc(=O)cc(N4CCOCC4)o3)c1S2)N1CCN(c2ccccc2F)CC1 [Compound 15]
C[C@@H]1CN(CCOc2ccc3c(c2)Sc2cccc(-c4cc(=O)cc(N5CCOCC5)o4)c2S3)C[C@H](C)O1 [Compound 359]
CCN1CCN(CCC(=O)Nc2ccc3c(c2)Sc2cccc(-c4cc(=O)cc(N5CCOCC5)o4)c2S3)CC1 [Compound 119]
O=c1cc(-c2cccc3c2Sc2ccc(S(=O)(=O)N4CCCNCC4)cc2C3)oc(N2CCOCC2)c1 [Compound 489]
CN1CCCC1CCNCCC(=O)Nc1ccc2c(c1)Sc1cccc(-c3cc(=O)cc(N4CCOCC4)o3)c1S2 (stereo not drawn) [Compound 114]
O=C(COc1ccc2c(c1)Sc1cccc(-c3cc(=O)cc(N4CCOCC4)o3)c1S2)NCc1ccncc1 [Compound 439]
O=C(COc1ccc2c(c1)Sc1cccc(-c3cc(=O)cc(N4CCOCC4)o3)c1S2)N1CCN(C(=O)c2ccco2)CC1 [Compound 414]
O=C(CNCCN1CCCCC1)Nc1ccc2c(c1)Sc1cccc(-c3cc(=O)cc(N4CCOCC4)o3)c1S2 [Compound 88]
O=C1NCCN1CCNCCCN1c2ccccc2Sc2c(-c3cc(=O)cc(N4CCOCC4)o3)cccc21 [Compound 287]
O=c1cc(-c2cccc3c2Sc2ccc(S(=O)(=O)NCCc4cnc[nH]4)cc2C3)oc(N2CCOCC2)c1 [Compound 465]
CCN(CC)CCC(=O)Nc1ccc2c(c1)Sc1cccc(-c3cc(=O)cc(N4CCOCC4)o3)c1S2 [Compound 105]
CC(C)N1CCN(CC(=O)Nc2ccc3c(c2)Sc2cccc(-c4cc(=O)cc(N5CCOCC5)o4)c2S3)CC1 [Compound 80]
CN(C)CCN(CCCN1c2ccccc2Sc2c(-c3cc(=O)cc(N4CCOCC4)o3)cccc21)Cc1ccccc1 [Compound 281]
CCOC(=O)C1CCN(CCCN2c3ccccc3Sc3c(-c4cc(=O)cc(N5CCOCC5)o4)cccc32)CC1 [Compound 312]
O=c1cc(-c2cccc3c2Sc2ccccc2N3CCCN2CCN(c3ncccn3)CC2)oc(N2CCOCC2)c1 [Compound 295]
O=c1cc(-c2cccc3c2Sc2ccccc2N3CCCNCCN2CCOCC2)oc(N2CCOCC2)c1 [Compound 272]
CC(C)N(CCNCCCOc1ccc(-c2cc(=O)cc(N3CCOCC3)o2)c2c1Sc1ccccc1S2)C(C)C [Compound 200]
CN(C)CCN(C)CCC(=O)Nc1ccc2c(c1)Sc1cccc(-c3cc(=O)cc(N4CCOCC4)o3)c1S2 [Compound 112]
CC(=O)N1CCN(CCC(=O)Nc2ccc3c(c2)Sc2cccc(-c4cc(=O)cc(N5CCOCC5)o4)c2S3)CC1 [Compound 116]
COCCN(CCOC)CC(=O)Nc1ccc2c(c1)Sc1cccc(-c3cc(=O)cc(N4CCOCC4)o3)c1S2 [Compound 56]
CCC(C)(C)NS(=O)(=O)c1ccc2c(c1)Cc1cccc(-c3cc(=O)cc(N4CCOCC4)o3)c1S2 [Compound 488]
O=c1cc(-c2cccc3c2Sc2ccc(S(=O)(=O)N(CCO)CCO)cc2C3)oc(N2CCOCC2)c1 [Compound 490]
O=C(CN1CCNCC1)Nc1ccc2c(c1)Sc1cccc(-c3cc(=O)cc(N4CCOCC4)o3)c1S2 [Compound 53]
O=c1cc(-c2cccc3c2Sc2ccccc2N3CCCNC(CO)(CO)CO)oc(N2CCOCC2)c1 [Compound 322]
O=C(COc1ccc2c(c1)Cc1cccc(-c3cc(=O)cc(N4CCOCC4)o3)c1S2)NC1CCC1 [Compound 499]
O=C(CN1CCN(c2ccccn2)CC1)Nc1ccc2c(c1)Sc1cccc(-c3cc(=O)cc(N4CCOCC4)o3)c1S2 [Compound 82]
CC(=O)OCC(=O)Nc1ccc2c(c1)Sc1cccc(-c3cc(=O)cc(N4CCOCC4)o3)c1S2 [Compound 42]
C[C@@H]1CN(S(=O)(=O)c2ccc3c(c2)Cc2cccc(-c4cc(=O)cc(N5CCOCC5)o4)c2S3)C[C@H](C)O1 [Compound 478]
NC(=O)C1CCN(C(=O)COc2ccc3c(c2)Sc2cccc(-c4cc(=O)cc(N5CCOCC5)o4)c2S3)CC1 [Compound 416]
CC(=O)N1CCC(C(=O)Nc2ccc3c(c2)Sc2cccc(-c4cc(=O)cc(N5CCOCC5)o4)c2S3)CC1 [Compound 38]
O=C(Cc1cccs1)Nc1ccc2c(c1)Sc1cccc(-c3cc(=O)cc(N4CCOCC4)o3)c1S2 [Compound 33]
O=C(CN1CCN(c2ccc(F)cc2)CC1)Nc1ccc2c(c1)Sc1cccc(-c3cc(=O)cc(N4CCOCC4)o3)c1S2 [Compound 83]
O=C(COc1ccc2c(c1)Cc1cccc(-c3cc(=O)cc(N4CCOCC4)o3)c1S2)N1CCOCC1 [Compound 494]
O=C(CN1CCN(CCO)CC1)Nc1ccc2c(c1)Cc1cccc(-c3cc(=O)cc(N4CCOCC4)o3)c1S2 [Compound 348]
O=C(COc1ccc2c(c1)Sc1cccc(-c3cc(=O)cc(N4CCOCC4)o3)c1S2)Nc1cccnc1 [Compound 419]
O=c1cc(-c2ccc(OCCNCCN3CCN(Cc4ccccc4)CC3)c3c2Sc2ccccc2S3)oc(N2CCOCC2)c1 [Compound 164]
CC(C)N1CCN(CC(=O)Nc2ccc3c(c2)Cc2cccc(-c4cc(=O)cc(N5CCOCC5)o4)c2S3)CC1 [Compound 341]
